Laboratory results from patent US6297250A, “Pyrimidopyrimidine compounds” (Newcastle University Ventures Limited, priority 1997, dated 2001).
Values joined by “and” are separate entries in the source; they are usually repeats but may differ in a detail not shown here. Identical values can stand only once. Like-named read-outs stand apart in the source and are kept apart here.

Tested on: L1210 cells
Assay: Nucleoside transport inhibition assay: inhibition of 3H-thymidine uptake, with or without AGP or HSA
Type: cell-based, murine
Conditions: for inhibition at 10 µM: L1210, 10 μM compound; for inhibition at 100 µM: L1210, 100 μM compound; for inhibition at 1 µM: L1210, 1 μM compound; for inhibition at 50 µM: L1210, 50 μM compound; for Effect of AGP on the inhibition of thymidine uptake: in words; for inhibition at 0.25 µM: L1210, 0.25 μM compound
Method: In vitro activity. […] For testing the compounds an established nucleoside transport assay involving measurement of thymidine uptake was adapted. Murine leukaemia L1210 cells were used in this assay as their nucleoside transport characteristics are well known. This assay for measuring thymidine uptake used a modification of the rapid mixing technique of Wohleheuter, R. […] Materials used included a transport buffer comprising 130 mM NaCl, 5 mM KC1, 1 mM MgCl, 5 mM NaH2 PO4, 10 mM glucose and 10 mM HEPES. This buffer was made up as sterile 5× concentrate and reconstituted in distilled water and adjusted to pH 7.4 immediately prior to carrying out the assay. […] The supernatant was aspirated and the cells were washed with ice-cold transport buffer and centrifuged again at 1000 rpm for 5 minutes at 4° C. The supernatant was removed and the cells were resuspended in ice-cold transport buffer to give a final cell density of 2-4×10^7 cells/mi. Cells were left on ice for 30 minutes recovery prior to starting the assay. […] The suspension was mixed well and 100 μl was layered onto 150 μl silicone oil (9:11 Dow Corning 556 (Sp.Gr. 0.98):Dow Corning 550 (Sp.Gr. 1.068) (final Sp.Gr. 1.028) overlaying 50 μl 3M KOH in 6 replicate 0.5 ml microfuge tubes. […] The tubes were immediately transferred to a microfuge (Eppendorf) and spun at 12000 rpm for 2 minutes to pellet the cells through the oil and into the KOH. The tubes were capped and the cells left to solubilise in the KOH for 1 hour. Cell number and viability for each run was determined by haemocytometer counting using trypan blue exclusion. […] The tubes were capped and cut in the oil layer such that the bottom portion (cells solubilised in KOH) fell into a 20 ml scintillation vial. 1 ml 0.25M acetic acid followed by 1 ml air was injected into the tube using a 2 ml syringe and 23-gauge needle to disperse and neutralise the KOH-solubilisedcells. 10 ml of Optiphase HiSafe™ scintillant was added and the vials capped and shaken. […] The [^14 C]:[^3 H] ratio was used to calculate the amount of non-transported contaminating [^3 H]thymidine in the extracellular space.

[1] = Mus musculus, no AGP, read-out: % Inhibition of 3H-thymidine uptake, No AGP
[2] = Mus musculus, no AGP, 5% DMSO, read-out: % Inhibition of 3H-thymidine uptake, No AGP (5% DMSO)
[3] = 50 μM compound, no AGP, 5% DMSO, 50 µM
[4] = Mus musculus, +5 mg/ml AGP vs no AGP, read-out: % Reduction (of inhibition by AGP)
[5] = Mus musculus, +5 mg/ml AGP, read-out: % Inhibition of 3H-thymidine uptake, +5 mg/ml AGP

In the case of `CCCOc1nc(N2CCCCC2)c2nc(OCCC)nc(N3CCCCC3)c2n1` [NU3064, 2,6-Di(n)propoxy-4,8-dipiperidinopyrimidopyrimidine], the inhibition at 10 µM [1] is reported as 37 ± 11%, the inhibition at 100 µM [1] is reported as 60 ± 9% and the IC50 (Mus musculus, L1210, no AGP) is reported as 52 µM.

With `CCOC(C)(COc1nc(N2CCCCC2)c2nc(OCC(C)(OCC)OCC)nc(N3CCCCC3)c2n1)OCC` [NU3065, 2,6-bis(2',2'-Diethylacetal-1-propoxy)-4,8-dipiperidinopyrimidopyrimidine] the inhibition at 1 µM [1] was 30 ± 7%, the inhibition at 10 µM [1] was 65 ± 9% and the inhibition at 100 µM [1] was 82 ± 16%. The IC50 (Mus musculus, L1210, no AGP) was 4.24 µM.

`CC(=O)COc1nc(N2CCCCC2)c2nc(OCC(C)=O)nc(N3CCCCC3)c2n1` [NU3066, 2,6-Di(-2-oxopropoxy)-4,8-dipiperidinopyrimidopyrimidine] gave an inhibition at 10 µM [2] of 58 ± 3%.

With `COc1nc(N2CCCCC2)c2nc(OC)nc(N3CCCCC3)c2n1` [NU3067, 2,6-Dimethoxy-4,8-dipiperidinopyrimidopyrimidine] the “% Inhibition of 3H-thymidine uptake, No AGP (5% DMSO)” value (shortened to “% Inhibition … No AGP (5% DMSO)”) [3] was 76%, the inhibition at 10 µM [2] was 39 ± 7% and the inhibition at 50 µM (Mus musculus, no AGP, 5% DMSO) was 81%.

In the case of `CCOc1nc(N2CCCCC2)c2nc(OCC)nc(N3CCCCC3)c2n1` [NU3068, 2,6-Diethoxy-4,8-dipiperidinopyrimidopyrimidine], the “% Inhibition … No AGP (5% DMSO)” value [3] is reported as 65%, the inhibition at 10 µM [2] is reported as 35 ± 4% and the inhibition at 50 µM (Mus musculus, no AGP, 5% DMSO) is reported as 74%.

`CC(C)Oc1nc(N2CCCCC2)c2nc(OC(C)C)nc(N3CCCCC3)c2n1` [NU3069, 2,6-Di-iso-propoxy-4,8-dipiperidinopyrimidopyrimidine] was tested, and the inhibition at 10 µM [2] was 23 ± 12% and the inhibition at 100 µM [2] was 64 ± 6%.

For `CC(C)CCOc1nc(N2CCCCC2)c2nc(OCCC(C)C)nc(N3CCCCC3)c2n1` [NU3070, 2,6-Di-(3'-methylbutoxy)-4,8-dipiperidinopyrimidopyrimidine], the “% Inhibition … No AGP (5% DMSO)” value (10 μM compound, no AGP, 5% DMSO, 10 µM) was 51% and the inhibition at 10 µM [2] was 46%.

`CC(C)COc1nc(N2CCCCC2)c2nc(OCC(C)C)nc(N3CCCCC3)c2n1` [NU3071, 2,6-Di-(2'-methylpropoxy)-4,8-dipiperidinopyrimidopyrimidine] gave an inhibition at 10 µM [2] of 25 ± 4% and an inhibition at 100 µM [2] of 65 ± 4%.

`C=CCOc1nc(N2CCCCC2)c2nc(OCC=C)nc(N3CCCCC3)c2n1` [NU3072, 2,6-Di-allyloxy-4,8-dipiperidinopyrimidopyrimidine] was tested, and the “% Inhibition … No AGP (5% DMSO)” value (100 μM compound, no AGP, 5% DMSO, 100 µM) was 63%, the inhibition at 10 µM [2] was 52 ± 7% and the inhibition at 100 µM [2] was 66%.

With `COCC(C)Oc1nc(N2CCCCC2)c2nc(OC(C)COC)nc(N3CCCCC3)c2n1` (centres unmarked) [NU3074, 2,6-Di(1'-methoxy-2'-methyl)ethoxy-4,8-dipiperidinopyrimidopyrimidine] the inhibition at 10 µM [1] was 62 ± 10% and the inhibition at 100 µM [1] was 96 ± 7%.

In the case of `CC(O)COc1nc(N2CCCCC2)c2nc(OCC(C)O)nc(N3CCCCC3)c2n1` (centres unmarked) [NU3077, 2,6-Di(2'-hydroxypropoxy)-4,8-dipiperidinopyrimidopyrimidine], the “% Inhibition of 3H-thymidine uptake, No AGP” value (1 μM compound, no AGP, 1 µM) is reported as 44 ± 8%, the inhibition at 1 µM [4] is reported as 55% and the inhibition at 1 µM [5] is reported as 20 ± 10%. The inhibition at 1 µM [1] was 47 ± 8%, the inhibition at 10 µM [4] was 25% and the inhibition at 10 µM [5] was 69 ± 9%. The inhibition at 10 µM [1] was 92 ± 10%, the IC50 (Mus musculus, L1210, no AGP) was 0.9 µM and the “Effect of AGP on the inhibition of thymidine uptake” value was “no significant reduction”. The IC50 (no AGP) was 1.13 µM.

For `CC1(C)OC[C@@H](COc2nc(NCc3ccccc3)c3nc(OC[C@@H]4COC(C)(C)O4)nc(NCc4ccccc4)c3n2)O1` [NU3078, (R,R)-2,6-bis(2',2'-Dimethyl-1',3'-dioxolane-4'-methoxy)-4,8-dibenzylamino pyrimidopyrimidine], the “% Inhibition of 3H-thymidine uptake, No AGP” value (10 μM compound, no AGP) was 46 ± 3%.

`OCCN(CCO)c1nc(NCc2ccc(C(F)(F)F)cc2)c2nc(N(CCO)CCO)nc(NCc3ccc(C(F)(F)F)cc3)c2n1` [NU3079, 2,6-bis(Diethanolamino)-4,8-di[(4'-trifluoromethylbenzyl)amino]pyrimido pyrimidine] was tested, and the inhibition at 1 µM [1] was 32 ± 11% and the inhibition at 10 µM [1] was 60 ± 7%.

Molecule `OCCN(CCO)c1nc(N2CCc3ccccc3C2)c2nc(N(CCO)CCO)nc(N3CCc4ccccc4C3)c2n1` [NU3080, 2,6-bis-Diethanolamino-4,8-di-(N-1,2,3,4-tetrahydroisoquinolyl)pyrimidopyrimidine] has an inhibition at 1 µM [1] of 72 ± 22%, an inhibition at 10 µM [4] of 31% and an inhibition at 10 µM [5] of 69%. It also gave an inhibition at 10 µM [1] of 100% and an IC50 (Mus musculus, L1210, no AGP) of 0.72 ± 0.38 µM.

With `COc1ccc(CNc2nc(N(CCO)CCO)nc3c(NCc4ccc(OC)c(OC)c4)nc(Cl)nc23)cc1OC` [NU3081, 2-chloro-6-diethanolamino-4,8-bis[(3',4'-dimethoxybenzyl)amino]pyrimidopyrimidine] the inhibition at 1 µM [1] was 59 ± 2%, the inhibition at 10 µM [1] was 95 ± 9% and the IC50 (Mus musculus, L1210, no AGP) was 0.71 µM.

With `OCCN(CCO)c1nc(N2CCc3ccccc3C2)c2nc(Cl)nc(N3CCc4ccccc4C3)c2n1` [NU3082, 2-Chloro-6-diethanolamino-4,8-di-(N-1,2,3,4-tetrahydroisoguinolyl)pyrimidopyrimidine] the “% Inhibition of 3H-thymidine uptake, No AGP” value (1 μM compound, no AGP, 1 µM) was 9% and 0% and the inhibition at 10 µM [1] was 22 ± 14%.

`OCCN(CCO)c1nc(NCc2ccc(Cl)cc2)c2nc(N(CCO)CCO)nc(NCc3ccc(Cl)cc3)c2n1` [NU3083, 2,6-bis(Diethanolamino)-4,8-di[(4'-chlorobenzyl)amino]pyrimido pyrimidine] gave an inhibition at 1 µM [1] of 53 ± 15%, an inhibition at 10 µM [1] of 92 ± 14% and an IC50 (Mus musculus, L1210, no AGP) of 1.11 µM.

In the case of `COc1ccc(CNc2nc(N(CCO)CCO)nc3c(NCc4ccc(OC)c(OC)c4)nc(N(CCO)CCO)nc23)cc1OC` [NU3084, 2,6-bis(Diethanolamino)-4,8-bis[(3',4'-dimethoxybenzyl)amino]pyrimidopyrimidine], the “% Inhibition of 3H-thymidine uptake, No AGP” value (1 μM compound, no AGP, 1 µM) is reported as 67 ± 10%, the inhibition at 1 µM [4] is reported as 4% and the inhibition at 1 µM [5] is reported as 64 ± 3%. It also gave an inhibition at 1 µM [1] of 74 ± 16%, an inhibition at 10 µM [4] of 5% and an inhibition at 10 µM [5] of 93 ± 10%. For the same molecule, the inhibition at 10 µM [1] was 98 ± 5%, the IC50 (Mus musculus, L1210, no AGP) was 0.25 µM and the “Effect of AGP on the inhibition of thymidine uptake” value was “no significant reduction”. For the same molecule, the “Potency as inhibitor relative to dipyridamole” value (presence and absence of AGP, or of 40 mg/ml human serum albumin) was “more potent inhibitors than dipyridamole”.

For `OCCCOc1nc(N2CCCCC2)c2nc(OCCCO)nc(N3CCCCC3)c2n1` [NU3085, 2,6-Di(3'-hydroxypropoxy)-4,8-dipiperidinopyrimidopyrimidine], the “% Inhibition of 3H-thymidine uptake, No AGP” value (10 μM compound, no AGP, 10 µM) was 100% and 76%, the inhibition at 1 µM [1] was 35 ± 5% and the IC50 (Mus musculus, L1210, no AGP) was 2.36 µM.

`COc1ccc(CNc2nc(OCC(C)O)nc3c(NCc4ccc(OC)cc4)nc(OCC(C)O)nc23)cc1` (centres unmarked) [NU3087, 2,6-Di(2'-hydroxypropoxy)-4,8-bis(4'-methoxybenzylamino)pyrimidopyrimidine] gave an inhibition at 0.25 µM (Mus musculus, +0.125 mg/ml AGP vs no AGP, read-out: % Reduction (of inhibition by AGP)) of 0%, an inhibition at 0.25 µM (Mus musculus, +0.125 mg/ml AGP, read-out: % Inhibition of 3H-thymidine uptake, +0.125 mg/ml AGP) of 20 ± 2% and an inhibition at 0.25 µM [1] of 17%. For the same molecule, the inhibition at 1 µM [1] was 68 ± 14%, the IC50 (Mus musculus, L1210, no AGP) was roughly 0.3 µM and the “Effect of AGP on the inhibition of thymidine uptake” value was “no significant reduction”.

`CN(Cc1ccccc1)c1nc(OCCCO)nc2c(N(C)Cc3ccccc3)nc(OCCCO)nc12` [NU3088, 2,6-Di(3'-hydroxypropoxy)-4,8-di[(N-benzylmethyl)amino]pyrimidopyrimidine] was tested, and the “% Inhibition of 3H-thymidine uptake, No AGP” value (1 μM compound, no AGP) was 52 ± 19%, the “% Inhibition of 3H-thymidine uptake, No AGP” value (10 μM compound, no AGP, 10 µM) was 100% and 77% and the IC50 (no AGP) was 1.44 µM.

With `COc1ccc(CNc2nc(OCCO)nc3c(NCc4ccc(OC)cc4)nc(OCCO)nc23)cc1` [NU3089, 2,6-Di(2'-hydroxyethoxy)-4,8-di(4'-methoxybenzylamino)pyrimidopyrimidine] the “% Inhibition of 3H-thymidine uptake, No AGP” value (1 μM compound, no AGP, 1 µM) was 24 ± 18%, the inhibition at 1 µM [4] was 0% and the inhibition at 1 µM [5] was 28 ± 25%. It also gave an inhibition at 1 µM [1] of 40 ± 19%, an inhibition at 10 µM [1] of 88 ± 11% and an IC50 (Mus musculus, L1210, no AGP) of 0.67 µM. For the same molecule, the IC50 (no AGP) was 1.2 µM.
